Experimental data reported in patent US20060183902A1, “Dihydroindolyl methanones as alpha 1a/1d adrenoreceptor modulators for the treatment of benign prostatic hypertrophy and lower urinary tract symptoms” (priority 2005, published 2006).

Key:
[1] = test system: α1a and α1d subtypes over the α1b subtype; details: cited from earlier work
[2] = test system: BPH patients; details: clinical studies; cited from earlier work
[3] = test system: normal rats and rats with bladder hypertrophy secondary to outlet obstruction; details: intrathecally administered; cited from earlier work
[4] = target: T1, α1d-AR (Homo sapiens, UniProt P25100); test: α1-Adrenergic receptor radio-ligand (125I-HEAT) binding assay, α1d subtype; details: COS-7 cell membranes transfected with α1d-AR, 125I-HEAT 50 pM; read-out: Receptor Binding, Ki α1d-AR
T1 construct: expressed in transfected cells; host or cells: COS-7
T1 sequence (P25100 1-572): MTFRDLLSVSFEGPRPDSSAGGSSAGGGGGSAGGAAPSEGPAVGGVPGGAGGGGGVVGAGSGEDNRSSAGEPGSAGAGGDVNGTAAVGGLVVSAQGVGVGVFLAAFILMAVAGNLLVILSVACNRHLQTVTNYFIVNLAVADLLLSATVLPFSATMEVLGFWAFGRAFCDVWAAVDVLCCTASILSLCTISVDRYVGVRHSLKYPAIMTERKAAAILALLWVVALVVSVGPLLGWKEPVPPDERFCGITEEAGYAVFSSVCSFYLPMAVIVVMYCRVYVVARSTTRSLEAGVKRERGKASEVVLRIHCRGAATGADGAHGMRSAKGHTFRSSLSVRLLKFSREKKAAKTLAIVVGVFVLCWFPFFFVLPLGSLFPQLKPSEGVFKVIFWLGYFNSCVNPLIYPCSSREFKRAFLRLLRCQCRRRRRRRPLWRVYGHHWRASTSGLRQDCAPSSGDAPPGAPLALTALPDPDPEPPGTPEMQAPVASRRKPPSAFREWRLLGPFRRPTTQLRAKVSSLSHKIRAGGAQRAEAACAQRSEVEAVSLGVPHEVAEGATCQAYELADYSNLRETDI
In short: (§1)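 Membranes from COS-7 cells transfected with a single α1-AR subtype, incubated 1 h at rt with 50 pM 125I-HEAT and compound (1 pM–10 µM, half-log steps, final) in Tris/EDTA/NaCl pH 7.4. Bound radioactivity collected by GF/C filtration and scintillation counting, triplicates; Ki derived.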

[5] = target: T2, α1a-AR (Homo sapiens, UniProt P35348); test: α1-Adrenergic receptor radio-ligand (125I-HEAT) binding assay, α1a subtype; details: COS-7 cell membranes transfected with α1a-AR, 125I-HEAT 50 pM; read-out: Receptor Binding, Ki α1a-AR
T2 construct: expressed in transfected cells; host or cells: COS-7
T2 sequence (P35348 1-466): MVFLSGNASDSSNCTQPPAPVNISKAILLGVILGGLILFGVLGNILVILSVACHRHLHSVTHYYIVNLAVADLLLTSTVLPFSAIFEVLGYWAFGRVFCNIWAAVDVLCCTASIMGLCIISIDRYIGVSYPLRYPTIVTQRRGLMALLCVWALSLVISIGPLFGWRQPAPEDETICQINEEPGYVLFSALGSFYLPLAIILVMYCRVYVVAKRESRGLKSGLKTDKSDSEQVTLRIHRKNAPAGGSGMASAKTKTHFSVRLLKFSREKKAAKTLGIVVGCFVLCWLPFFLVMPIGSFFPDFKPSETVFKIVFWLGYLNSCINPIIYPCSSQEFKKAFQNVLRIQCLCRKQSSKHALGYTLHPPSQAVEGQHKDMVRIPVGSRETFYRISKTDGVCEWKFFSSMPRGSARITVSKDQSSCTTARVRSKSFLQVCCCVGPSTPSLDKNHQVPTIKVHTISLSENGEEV
In short: as §1

[6] = target: T3, α1b-AR (Homo sapiens, UniProt P35368); test: α1-Adrenergic receptor radio-ligand (125I-HEAT) binding assay, α1b subtype; details: COS-7 cell membranes transfected with α1b-AR, 125I-HEAT 50 pM; read-out: Receptor Binding, Ki α1b-AR
T3 construct: expressed in transfected cells; host or cells: COS-7
T3 sequence (P35368 1-520): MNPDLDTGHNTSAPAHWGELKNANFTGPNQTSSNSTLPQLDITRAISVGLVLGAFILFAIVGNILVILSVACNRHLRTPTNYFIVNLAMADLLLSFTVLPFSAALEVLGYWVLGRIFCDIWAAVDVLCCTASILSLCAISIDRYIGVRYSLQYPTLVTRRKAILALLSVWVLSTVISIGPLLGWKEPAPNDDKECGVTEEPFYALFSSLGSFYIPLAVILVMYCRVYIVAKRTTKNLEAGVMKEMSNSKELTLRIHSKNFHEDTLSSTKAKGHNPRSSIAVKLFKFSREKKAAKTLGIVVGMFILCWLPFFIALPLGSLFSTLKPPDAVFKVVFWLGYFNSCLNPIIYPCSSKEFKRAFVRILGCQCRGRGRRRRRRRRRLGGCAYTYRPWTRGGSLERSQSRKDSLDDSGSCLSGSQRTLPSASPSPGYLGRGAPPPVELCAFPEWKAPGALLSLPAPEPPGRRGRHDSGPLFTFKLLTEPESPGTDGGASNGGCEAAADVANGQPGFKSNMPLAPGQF
In short: as §1

Structure (SMILES) | selective for the α1a and α1d subtypes over the α1b subtype [1] | effect on obstructive and irritative symptoms of BPH [2] | micturition pressure [3] | Ki [4] [nM] | Ki [5] [nM] | Ki [6] [nM] | melting point [°C]
CCOc1ccccc1OCCN[C@H](C)Cc1ccc(OC)c(S(N)(=O)=O)c1 [Tamsulosin] | about 15 fold | improvement in both obstructive and irritative symptoms |  |  |  |  | 
COc1cc2nc(N3CCN(C(=O)C4COc5ccccc5O4)CC3)nc(N)c2cc1OC (stereo not drawn) [doxazosin] |  |  | decrease in micturition pressure |  |  |  | 
CC(C)Oc1ccccc1N1CCN(Cc2cccc(C(=O)N3CCc4ccc(NS(=O)(=O)c5cccc6c(N(C)C)cccc56)cc43)c2)CC1 [Cpd 32, 5-dimethylamino-naphthalene-1-sulfonic acid (1-{3-[4-(2-isopropoxy-phenyl)-piperazin-1-ylmethyl]-benzoyl}-2,3-dihydro-1H-indol-6-yl)-amide] |  |  |  | 9.4 | 2.7 | 610 | 137 to 139
CCOC(OCC)c1ccc(CNc2ccc3c(c2)N(C(=O)c2cccc(CN4CCN(c5ccccc5OC(C)C)CC4)c2)CC3)cc1 [Cpd 11] |  |  |  | 7 | 5 | 6260 | 156 to 160
COc1cccc(OC)c1C(=O)Nc1ccc2c(c1)CCN2C(=O)c1cccc(CN2CCN(c3ccccc3OC(C)C)CC2)c1 [Cpd 26, N-(1-{3-[4-(2-isopropoxy-phenyl)-piperazin-1-ylmethyl]-benzoyl}-2,3-dihydro-1H-indol-5-yl)-2,6-dimethoxy-benzamide] |  |  |  | 2 | 34 | 200 | 229 to 232
